Data published in patent US10266806B2, “Stem cell-derived hepatocytes in co-culture and uses thereof” (Colorado State University Research Foundation, priority 2014, dated 2019).
Structures can show the parent of a compound that is named as a salt.

Assays:
iHeps in iMPCCs = conditions: for TC50 in MPCCs Albumin / TC50 in MPCCs Urea / TC50 in MPCCs ATP: human, 6 days
[1] = system: primary hepatocytes (HUM4011)
[2] = total human plasma concentration; cited from earlier work
[3] = system: primary human hepatocytes in MPCCs; conditions: (ref 19), cited from earlier work; for TC50 in MPCCs ATP: concentration at which activity decreases by 50% of DMSO-only controls
[4] = negative number: withdrawn from the market; higher positive numbers: greater DILI concern; cited from earlier work

| Compound | Cmax [2] [µM] | TC50 in MPCCs Albumin (iHeps in iMPCCs) [µM] | TC50 in MPCCs Albumin [3] [µM] | TC50 in MPCCs ATP [3] [µM] | TC50 in MPCCs Urea [3] [µM] | also measured |
| --- | --- | --- | --- | --- | --- | --- |
| O=C(O)/C=C\C(=O)O [Maleic acid] | 1 |  |  |  |  | Model predictions iMPCC (binary decision) (iHeps in iMPCCs): −; toxicity call in another donor of primary hepatocytes [1]: borderline positive |
| COC(=O)Nc1nc2ccc(C(=O)c3ccccc3)cc2[nH]1 [Mebendazole] | 0.126 | 1.9 | 11.6 | 11.5 |  | TC50 in MPCCs Urea (iHeps in iMPCCs): 2.3 µM |
| Cc1cccc(Nc2ccccc2C(=O)O)c1C [Mefenamic acid] | 27 | 410.3 | 1291.9 | 1393.4 | 1255.1 | TC50 in MPCCs ATP (iHeps in iMPCCs): 2551.9 µM; TC50 in MPCCs Urea (iHeps in iMPCCs): 572.3 µM |
| Cn1cc[nH]c1=S [Methimazole] | 1.87 |  |  |  |  |  |
| Clc1ccc(COC(Cn2ccnc2)c2ccc(Cl)cc2Cl)c(Cl)c1 (stereo not shown) [Miconazole] | 0.024 |  |  |  |  | Model predictions iMPCC (binary decision) (iHeps in iMPCCs): − |
| CNCCC=C1c2ccccc2CCc2ccccc21 [Nortriptyline HCl] | 0.122 |  |  |  |  | DILI Sev (DILI severity scores from the LTKB of the FDA) [4]: 8 |
| CCOc1ccc(NC(C)=O)cc1 [Phenacetin] | 13.4 | 1213.3 |  |  | 1076.1 | TC50 in MPCCs Urea (iHeps in iMPCCs): 253.3 µM; Model predictions iCC (binary decision) (iHeps in iCCs): −; toxicity call in iCCs (iHeps in iCCs): not identified as toxic |
| Cc1ccc(N(CC2=NCCN2)c2cccc(O)c2)cc1 [Phentolamine mesylate] | 0.086 |  |  |  |  | Model predictions iMPCC (binary decision) (iHeps in iMPCCs): − |
| CCCCC1C(=O)N(c2ccccc2)N(c2ccccc2)C1=O [Phenylbutazone] | 487 |  | 6414.4 | 7566.7 | 2532.0 |  |
| CN1C(C(=O)Nc2ccccn2)=C(O)c2ccccc2S1(=O)=O [Piroxicam] | 5.13 |  |  |  |  | toxicity call in iMPCCs / iHeps (iHeps in iMPCCs): toxic; DILI Sev (DILI severity scores from the LTKB of the FDA) [4]: 3 |
| C[C@]12C=CC(=O)C=C1CC[C@@H]1[C@@H]2C(=O)C[C@@]2(C)[C@H]1CC[C@]2(O)C(=O)CO [Prednisone] | 0.068 |  |  |  |  | Model predictions iMPCC (binary decision) (iHeps in iMPCCs): − |
| CC(=O)[C@H]1CC[C@H]2[C@@H]3CCC4=CC(=O)CC[C@]4(C)[C@H]3CC[C@]12C [Progesterone] | 0.193 |  |  |  |  |  |
| CC(C)NCC(O)COc1cccc2ccccc12 (stereo not shown) [Propranolol] | 0.201 |  |  |  |  | Model predictions iMPCC (binary decision) (iHeps in iMPCCs): − |
| NC(=O)c1cnccn1 [Pyrazinamide] | 407 | 33457.5 | 20420.3 | 19695.5 | 14781.6 | toxicity call in iMPCCs / iHeps (iHeps in iMPCCs): toxic; Model predictions iCC (binary decision) (iHeps in iCCs): −; toxicity call in iCCs (iHeps in iCCs): non-toxic; DILI Sev (DILI severity scores from the LTKB of the FDA) [4]: 3 |
| C=C[C@H]1C[N@@]2CC[C@H]1C[C@H]2[C@H](O)c1ccnc2ccc(OC)cc12 [Quinine] | 9.25 | 115.7 | 251.6 | 259.1 | 285.2 | TC50 in MPCCs ATP (iHeps in iMPCCs): 182.2 µM; TC50 in MPCCs Urea (iHeps in iMPCCs): 127.9 µM |
| CN(CCOc1ccc(CC2SC(=O)NC2=O)cc1)c1ccccn1 (stereo not shown) [Rosiglitazone] | 1.12 |  |  |  |  |  |
| CC/C(=C(\c1ccccc1)c1ccc(OCCN(C)C)cc1)c1ccccc1 [Tamoxifen] | 0.162 | 4.2 | 3.2 | 15.8 | 3.9 | TC50 in MPCCs Urea (iHeps in iMPCCs): 11.7 µM; Model predictions iCC (binary decision) (iHeps in iCCs): − |
| O=c1n(CCCN2CCN(c3cccc(Cl)c3)CC2)nc2ccccn12 [Trazodone HCl] | 5.07 | 205.5 | 64.8 | 201.7 | 121.8 | TC50 in MPCCs ATP (iHeps in iMPCCs): 351.5 µM; TC50 in MPCCs Urea (iHeps in iMPCCs): 272.4 µM |
| Cc1c(C)c2c(c(C)c1O)CCC(C)(COc1ccc(CC3SC(=O)NC3=O)cc1)O2 (stereo not shown) [Troglitazone] |  |  |  |  |  | albumin production in iMPCCs (iMPCCs): declined significantly; urea production in iMPCCs (iMPCCs): declined significantly; DILI Sev (DILI severity scores from the LTKB of the FDA) [4]: −2 |
| CC(=O)CC(c1ccccc1)c1c(O)c2ccccc2oc1=O (stereo not shown) [Warfarin] | 4.89 |  |  |  |  |  |
| CCN(CC)C(=O)/C(C#N)=C/c1cc(O)c(O)c([N+](=O)[O-])c1 [entacapone] |  |  |  |  |  | albumin secretions in iMPCCs, toxicity over time and dose (iHeps in iMPCCs): time- and dose-dependent toxicities |
| Cc1ccc(C(=O)c2cc(O)c(O)c([N+](=O)[O-])c2)cc1 [tolcapone] |  |  |  |  |  | albumin secretions in iMPCCs, toxicity over time and dose (iHeps in iMPCCs): time- and dose-dependent toxicities; albumin production in iMPCCs (iMPCCs): declined significantly; urea production in iMPCCs (iMPCCs): declined significantly |
